Results reported in patent publication US20220008401A1, “COMPOSITIONS AND METHODS FOR TREATING PULMONARY DISEASE WITH MATRIX METALLOPROTEINASE INHIBITORS” (DARSHA LLC, priority 2019, published 2022).

Assays:
[1] = Lung and serum levels after nebulized Compound 1 in mice (mass spectroscopy); type: in vivo
Experimental: The compound was administered with a nebulizer of (FIG. 1A). With a 9 cc Medication Nebulizer, a dose of liquid medicine was prepared to a final concentration of 5 ml (3 mg/mL). Treatment was for approximately 20-30 minutes until all liquid was delivered. […] The nebulizer includes a Hospital grade Schuco air compressor 100, Blue top medication nebulizer 110, Plastic collar 120, White elbow hose connector 130, 7′ crush proof 02 tubing to air compressor 140, and MPC Aerosol Pie Cage 150. Technical Specifications of the nebulizing system were as follows:
The pie cage 150 has 12 slots to hold 12 mice.
10 mice were divided into three trial groups:
Low dose group: 3 mice at 2 mg dose (˜5 mg/kg) Medium dose group: 3 mice at 5 mg dose (˜12 mg/kg) High dose group: 4 mice at 10 mg dose (˜35 mg/kg)
The mice were nebulized within their respective dosing group for fifteen minutes (starting with the lowest dosing and moving up to the highest). One mouse was sacrificed per group at 1 hour, 3 hours and 5 hours after the drug delivery (2 mice were sacrificed for the 10 mg dose group).
[…] were collected during sacrifice: upper and lower left lung, right lung, and serum. The order of sample collection was: first blood, then left lung, then right lung. Before removing the right lung, but after removing the left lung, the right lung was lavaged. The lung samples were immediately placed into liquid nitrogen and the blood samples rested for 4 hours at room temperature. After the blood clotted it was centrifuged and the serum was taken into a new tube. Lung and serum samples were then analyzed by mass spectroscopy.

[2] = Lung homogenate levels after nebulized Compound 1, Example 5 (mass spectroscopy); type: in vivo, C57/BL6 mice; conditions: for Compound 1 levels in the lung: nebulized, dose groups pooled, lung homogenate, n=6
Experimental: In this test, C57/BL6 mice were divided into three treatment groups, where they received nebulized Compound 1 at high dose (10 mg/kg), medium dose (5 mg/kg) and, low dose (2 mg/kg). Animals were sacrificed at 1, 3 and, 5 hours (n=3 mice per time point) followed by collection of lung homogenates. Homogenates were analyzed by mass spectroscopy to determine Compound 1 levels in the lung.

LPS injured mice = assay: Pulmonary wet to dry ratio (edema), LPS-injured mice, single inhaled dose; type: in vivo, C57BL/6J mice; conditions: LPS 1.5 mg/kg; 24 hours later single aerosolized dose 35 mg/kg; right middle lobe; n=3/group (control 4.1, LPS 12.9)
Experimental: We next determined if inhaled Compound 1 attenuated specific features of acute inflammatory lung injury that were also observed in response to LPS. Again, 12-week-old male C57BL/6J mice were intranasally instilled with LPS (1.5 mg/kg of 1 mg/ml solution in sterile PBS). 24 hours later, these mice received a single dose of aerosolized MMP inhibitor (Compound 1, dissolved in PBS, 35 mg/kg) or PBS alone and a tail vein injection of FITC labeled albumin (FITC-albumin). One hour following nebulization, the mice were sacrificed. The left lung was fixed in formalin from each animal, paraffin embedded, sectioned and stained with H&E to examine histological features indicative of lung injury. These were achieved by visually scoring each slide based on a lung injury scoring system developed by the American Thoracic Society for animal models of inflammatory lung injury.
Edema was also assessed by determination of pulmonary wet to dry ratios. At the time of sacrifice the right middle lobe was removed from each animal and promptly weighed to obtain the wet weight. Thereafter, the lung tissue was dried in an oven at 65° C. for 72 hours and then weighed to obtain the dry weight.

caspase 3 = assay: Western blot for cleaved caspase 3 in lung homogenates of LPS-injured mice; type: in vivo
Experimental: It was also examined if Compound 1 would reduce the levels of apoptosis associated with injury by LPS. Because the time line of apoptosis takes hours, an additional set of mice were injured with LPS (1.5 mg/kg of 1 mg/ml solution in sterile PBS) followed by initiation of treatment with Compound 1 twenty four hours later. The mice received four doses of Compound 1 (one dose every six hours over a total duration of 24 hours in accordance with the treatment schedule described below with reference to FIG. 8B). The mice were sacrificed and their lungs were harvested and assessed for caspase 3 activity by western blot for cleaved caspase 3 and a caspase 3/7 activity assay obtained from ThermoFisher.
FIG. 5A is a representative western blot of lung homogenates that were equalized for protein content (i.e., normalized to actin) and probed for whole and cleaved caspase 3. Each lane represents a lung homogenate sample (40 μg) from an individual mouse. Lane 510 depicts a lung homogenate sample from a control mouse that was not administered LPS or Compound 1. Lanes 520 and 530 depict lung homogenate samples from two mice that were administered LPS but were not treated with Compound 1. […]
FIG. 5B is the relative densitometric quantification of western blots for cleaved caspase 3: whole caspase ratio. […]

[3] = tested on: mice exposed to cigarette smoke; assay: Cigarette smoke exposure model, BALF total cell counts; type: in vivo; conditions: cigarette smoke 10 days; inhaled Compound 1 once a day for last four days; sacrifice 1 hour after final dose
Experimental: In order to determine if the observed effects of Compound 1 were specific to a model of acute lung injury, we exposed mice to cigarette smoke, a more chronic model of lung injury, for 10 days while treating once a day with inhaled Compound 1 for the last four days of smoke exposure. Mice were sacrificed 1 hour following their final dose of Compound 1 on the 10th day. BALF was collected and total cell counts were performed. […] (*p<0.05).

What does the source list for “butanamide, N-hydroxy-2-[[(4-hydroxyphenyl)sulfonyl](3-pyridinylmethyl)amino]-3-methyl, hydrochloride, (2R) [Compound 1]”?
Mouse Lung MMI 270 ([1]; High Dose (10 mg, ~35 mg/kg, nebulized), 1 hour later, Left Lung Lower Lobe): 1415.95 ng/g; Mouse Lung MMI 270 ([1]; High Dose (10 mg, ~35 mg/kg, nebulized), 1 hour later, Right Lung Lower Lobe): 598.24 ng/g; Mouse Serum MMI 270 ([1]; High Dose (10 mg, ~35 mg/kg, nebulized), 1 hour later): 87.99 ng/mL; Mouse Lung MMI 270 ([1]; High Dose (10 mg, ~35 mg/kg, nebulized), 3 hour later, Left Lung Lower Lobe): 119.51 ng/g; Mouse Lung MMI 270 ([1]; High Dose (10 mg, ~35 mg/kg, nebulized), 3 hour later, Right Lung Lower Lobe): 50.75 ng/g; Mouse Serum MMI 270 ([1]; High Dose (10 mg, ~35 mg/kg, nebulized), 3 hour later): 7.93 ng/mL; Mouse Lung MMI 270 ([1]; High Dose (10 mg, ~35 mg/kg, nebulized), 5 hour later, Left Lung Lower Lobe): 70.67 ng/g; Mouse Lung MMI 270 ([1]; High Dose (10 mg, ~35 mg/kg, nebulized), 5 hour later, Right Lung Lower Lobe): 23.36 ng/g; Mouse Serum MMI 270 ([1]; High Dose (10 mg, ~35 mg/kg, nebulized), 5 hour later): 3.79 ng/mL; Mouse Lung MMI 270 ([1]; Low Dose (2 mg, ~5 mg/kg, nebulized), 1 hour later, Left Lung Lower Lobe): 102.10 ng/g; Mouse Lung MMI 270 ([1]; Low Dose (2 mg, ~5 mg/kg, nebulized), 1 hour later, Right Lung Lower Lobe): 155.55 ng/g; Mouse Serum MMI 270 ([1]; Low Dose (2 mg, ~5 mg/kg, nebulized), 1 hour later): 2.97 ng/mL; Mouse Lung MMI 270 ([1]; Low Dose (2 mg, ~5 mg/kg, nebulized), 3 hour later, Left Lung Lower Lobe): 42.92 ng/g; Mouse Lung MMI 270 ([1]; Low Dose (2 mg, ~5 mg/kg, nebulized), 3 hour later, Right Lung Lower Lobe): 12.60 ng/g; Mouse Serum MMI 270 ([1]; Low Dose (2 mg, ~5 mg/kg, nebulized), 3 hour later): <LLOQ; Mouse Lung MMI 270 ([1]; Low Dose (2 mg, ~5 mg/kg, nebulized), 5 hour later, Left Lung Lower Lobe): 13.21 ng/g; Mouse Lung MMI 270 ([1]; Low Dose (2 mg, ~5 mg/kg, nebulized), 5 hour later, Right Lung Lower Lobe): <LLOQ; Mouse Serum MMI 270 ([1]; Low Dose (2 mg, ~5 mg/kg, nebulized), 5 hour later): <LLOQ; Mouse Lung MMI 270 ([1]; Medium Dose (5 mg, ~12 mg/kg, nebulized), 1 hour later, Left Lung Lower Lobe): 465.18 ng/g; Mouse Lung MMI 270 ([1]; Medium Dose (5 mg, ~12 mg/kg, nebulized), 1 hour later, Right Lung Lower Lobe): 127.68 ng/g; Mouse Serum MMI 270 ([1]; Medium Dose (5 mg, ~12 mg/kg, nebulized), 1 hour later): 20.06 ng/mL; Mouse Lung MMI 270 ([1]; Medium Dose (5 mg, ~12 mg/kg, nebulized), 3 hour later, Left Lung Lower Lobe): 49.60 ng/g; Mouse Lung MMI 270 ([1]; Medium Dose (5 mg, ~12 mg/kg, nebulized), 3 hour later, Right Lung Lower Lobe): 18.92 ng/g; Mouse Serum MMI 270 ([1]; Medium Dose (5 mg, ~12 mg/kg, nebulized), 3 hour later): 3.40 ng/mL; Mouse Lung MMI 270 ([1]; Medium Dose (5 mg, ~12 mg/kg, nebulized), 5 hour later, Left Lung Lower Lobe): 26.04 ng/g; Mouse Lung MMI 270 ([1]; Medium Dose (5 mg, ~12 mg/kg, nebulized), 5 hour later, Right Lung Lower Lobe): 13.55 ng/g; Mouse Serum MMI 270 ([1]; Medium Dose (5 mg, ~12 mg/kg, nebulized), 5 hour later): <LLOQ; Compound 1 levels in the lung ([2]; 1 h post-inhalation): 310.7 ± 85.38 ng/g; Compound 1 levels in the lung ([2]; 3 h post-inhalation): 49.03 ± 15.54 ng/g; Compound 1 levels in the lung ([2]; 5 h post-inhalation): 24.48 ± 9.96 ng/g; effect of dose size on Compound 1 concentration in lung ([2]; high (10 mg/kg), medium (5 mg/kg), low (2 mg/kg) nebulized dose, 1, 3, 5 hours): no significant effect; pulmonary wet:dry ratio (LPS injured mice): 7.3; caspase 3 activation (cleaved caspase-3, western blot) (caspase 3; LPS 1.5 mg/kg, four inhaled doses, one every six hours, starting 24 hours after LPS, lung homogenate): absent or reduced; cleaved:whole caspase 3 ratio (densitometry) (caspase 3; LPS-CGS group, four inhaled doses q6h starting 24 hours after LPS, n≥5 (LPS-PBS 2.57±1.15, PBS-PBS 0.25±0.15)): 0.59±0.18 AU; smoke induced increase in BALF cell counts [3]: failed to attenuate
